Assay results taken from patent US20230373985A1 (Origenis Gmbh, priority 2020, published 2023).
pIC50: −log10 of the molar value.

Target: T1, wt human TYK2, catalytic site (Homo sapiens, UniProt P29597)
T1 construct: wt human TYK2, catalytic site; purchased SignalChem
T1 sequence (P29597 897-1176 limits assumed): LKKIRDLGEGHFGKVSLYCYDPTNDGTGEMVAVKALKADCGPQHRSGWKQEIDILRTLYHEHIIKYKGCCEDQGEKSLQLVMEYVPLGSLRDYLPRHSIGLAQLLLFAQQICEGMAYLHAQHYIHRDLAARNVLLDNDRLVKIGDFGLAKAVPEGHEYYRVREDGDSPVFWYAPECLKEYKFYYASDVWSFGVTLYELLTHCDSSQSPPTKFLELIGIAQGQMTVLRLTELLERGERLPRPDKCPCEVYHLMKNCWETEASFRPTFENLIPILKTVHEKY
Test: HTRF KinEASE assay, TYK2
Format: biochemical
Settings: 1 μM ATP; read-out: IC50, Activity Toward TYK2
Method: Basic protocol for HTRF KinEASE assay (Cisbio/FRA) inhibitor studies involved two steps: • Enzymatic step: Addition of 4 μL of test compound in corresponding DMSO dilutions, 4 μL of kinase/substrate mixture, 2 μL of ATP into 384 well small volume plates. Incubation for at least 30 minutes at room temperature. • Detection step: Addition of 5 μL antibody and 5 μL streptavidin-XL665, read plate after 60 minutes. Data analysis of emission ratios according KinEASE assay protocol.
(§1) Kinase and assay components were adjusted to final concentrations according to kit protocol. For TYK2: 2 nM wt human TYK2, catalytic site (SignalChem/CAN), 1 μM HTRF KinEASE-TK Substrate-biotin, 1 μM ATP in 1× Kinase Buffer. For JAK1: 4 nM wt human JAK1, catalytic site (ThermoFisher/USA), 1 μM HTRF KinEASE-TK Substrate-biotin, 2.5 μM ATP in 1× Kinase Buffer. For JAK2: 1 nM wt human JAK2, catalytic site (SignalChem/CAN), 1 μM HTRF KinEASE-TK Substrate-biotin, 100 μM ATP in 1× Kinase Buffer.
as §1

| SMILES | pIC50 |
| --- | --- |
| Cc1cc(Nc2cn(-c3ccccc3F)nc2C(N)=O)ncn1 [compound 5, 1-(2-fluorophenyl)-4-((6-methylpyrimidin-4-yl)amino)-1H-pyrazole-3-carboxamide] | 6.00 to 7.00 |
| NC(=O)c1nn(-c2c(F)cccc2F)cc1Nc1ccc(N)cn1 [compound 6, 4-((5-aminopyridin-2-yl)amino)-1-(2,6-difluorophenyl)-1H-pyrazole-3-carboxamide] | 6.00 to 7.00 |
| NC(=O)c1nn(-c2c(Cl)cccc2Cl)cc1Nc1ccccc1 [compound 21, 1-(2,6-dichlorophenyl)-4-(phenylamino)-1H-pyrazole-3-carboxamide] | 6.00 to 7.00 |
| CCNC(=O)c1ccc(Nc2cn(-c3c(F)cccc3F)nc2C(N)=O)cn1 [compound 24, 5-((3-carbamoyl-1-(2,6-difluorophenyl)-1H-pyrazol-4-yl)amino)-N-ethylpicolinamide] | 6.00 to 7.00 |
| CCNC(=O)c1ccc(Nc2cn(-c3c(F)cccc3OC)nc2C(N)=O)cn1 [compound 25, 5-((3-carbamoyl-1-(2-fluoro-6-methoxyphenyl)-1H-pyrazol-4-yl)amino)-N-ethylpicolinamide] | 6.00 to 7.00 |
| NC(=O)c1nn(-c2c(Cl)cccc2Cl)cc1Nc1ccc(-n2nnc3ccccc32)cc1 [compound 81, 4-((4-(1H-benzo[d][1,2,3]triazol-1-yl)phenyl)amino)-1-(2,6-dichlorophenyl)-1H-pyrazole-3-carboxamide] | 6.00 to 7.00 |
| NC(=O)c1nn(-c2c(Cl)cccc2Cl)cc1Nc1ccc(-n2c(=O)sc3ccccc32)cc1 [compound 201, 1-(2,6-dichlorophenyl)-4-((4-(2-oxobenzo[d]thiazol-3(2H)-yl)phenyl)amino)-1H-pyrazole-3-carboxamide] | 6.00 to 7.00 |
| NC(=O)c1nn(-c2c(Cl)cccc2Cl)cc1Nc1ccc(-n2nc3c(c2C(F)(F)F)CCCC3)cc1 [compound 236, 1-(2,6-dichlorophenyl)-4-((4-(3-(trifluoromethyl)-4,5,6,7-tetrahydro-2H-indazol-2-yl)phenyl)amino)-1H-pyrazole-3-carboxamide] | 6.00 to 7.00 |
| Cc1cc(C(F)(F)F)nn1-c1ccc(Nc2cn(-c3c(Cl)cccc3Cl)nc2C(N)=O)cc1 [compound 257, 1-(2,6-dichlorophenyl)-4-((4-(5-methyl-3-(trifluoromethyl)-1H-pyrazol-1-yl)phenyl)amino)-1H-pyrazole-3-carboxamide] | 6.00 to 7.00 |

Continued, values first:

| pIC50 | SMILES |
| --- | --- |
| 6.00 to 7.00 | CC(C)c1nc(C(F)(F)F)nn1-c1ccc(Nc2cn(-c3c(Cl)cccc3Cl)nc2C(N)=O)cc1 [compound 274, 1-(2,6-dichlorophenyl)-4-((4-(5-isopropyl-3-(trifluoromethyl)-1H-1,2,4-triazol-1-yl)phenyl)amino)-1H-pyrazole-3-carboxamide] |
| 6.00 to 7.00 | CCn1nc(C(F)(F)F)nc1-c1ccc(Nc2cn(-c3c(Cl)cccc3Cl)nc2C(N)=O)cc1 [compound 278, 1-(2,6-dichlorophenyl)-4-((4-(1-ethyl-3-(trifluoromethyl)-1H-1,2,4-triazol-5-yl)phenyl)amino)-1H-pyrazole-3-carboxamide] |
| 6.00 to 7.00 | CCCc1nc(C(F)(F)F)nn1-c1ccc(Nc2cn(-c3c(Cl)cccc3Cl)nc2C(N)=O)cc1 [compound 279, 1-(2,6-dichlorophenyl)-4-((4-(5-propyl-3-(trifluoromethyl)-1H-1,2,4-triazol-1-yl)phenyl)amino)-1H-pyrazole-3-carboxamide] |
| 6.00 to 7.00 | CC(C)n1nc(C(F)(F)F)nc1-c1ccc(Nc2cn(-c3c(Cl)cccc3Cl)nc2C(N)=O)cc1 [compound 280, 1-(2,6-dichlorophenyl)-4-((4-(1-isopropyl-3-(trifluoromethyl)-1H-1,2,4-triazol-5-yl)phenyl)amino)-1H-pyrazole-3-carboxamide] |
| 6.00 to 7.00 | CCn1nc(C(F)(F)F)nc1-c1ccc(Nc2cn(-c3c(F)cccc3Cl)nc2C(N)=O)cc1 [compound 289, 1-(2-chloro-6-fluorophenyl)-4-((4-(1-ethyl-3-(trifluoromethyl)-1H-1,2,4-triazol-5-yl)phenyl)amino)-1H-pyrazole-3-carboxamide] |
